Reference: patent US20250034135A1, “ANTI-APOPTOTIC PROTEIN BCL-2 INHIBITOR, PHARMACEUTICAL COMPOSITION AND USES THEREOF” (HANGZHOU HEALZEN THERAPEUTICS CO., LTD., priority 2021, published 2025)
Read-outs that look alike come from different tables or passages of the source.

What was measured:
[1] = target: BCL2 (Homo sapiens (Human), UniProt P10415); experiment: Molecular level activity test of anti-apoptotic protein BCL2 (HTRF, binding to Bim peptide); details: HTRF, binding of BCL2 to Bim peptide; read-out: BCL2 nM (inhibitory activity, IC50)
Outline: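 HTRF binding of His-tagged recombinant BCL2 to biotin-tagged Bim peptide, compound in 2% DMSO. After 1 h reaction, anti-His and streptavidin-XL665 detection reagents were added and incubated 4 h at room temperature before reading.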

[2] = target: BCL2 (G101V) (Homo sapiens (Human), UniProt P10415, G101V); experiment: Molecular level activity test of anti-apoptotic protein BCL2 (G101V) (HTRF, binding to Bim peptide); details: inhibition of BCL2 (G101V) binding to Bim peptide, read-out: BCL-2 (G101V)
Outline: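 His-tagged recombinant BCL2 (G101V) incubated 1 h with biotin-BIM peptide and compound (2% DMSO), then anti-His and streptavidin-XL665 detection reagents added for 4 h at room temperature. HTRF signal reflects compound effect on BCL2–BIM binding.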

[3] = target: BCL2 (D103Y) (Homo sapiens (Human), UniProt P10415, D103Y); experiment: Molecular level activity test of BCL2 (D103Y) (HTRF, binding to Bim peptide); details: read-out: BCL-2 (D103Y) (nM) (inhibitory activity, IC50)
Outline: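 His-tagged recombinant protein mixed with biotinylated BIM peptide and compound (2% DMSO), reacted 1 h. Anti-His and streptavidin-XL665 detection reagents then added and incubated 4 h at room temperature before HTRF read-out of binding inhibition.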

[4] = system: RS4; 11 cells; experiment: Tumor proliferation inhibitory activity test (MTS) on RS4; 11; type: cell-based; details: Homo sapiens, RS4-11, 72 h, 3 days incubation
Outline: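 RS4;11 cells were exposed to serially diluted compound (0.2% DMSO control) for 3 days at 37 °C/5% CO2, followed by MTS for 3–4 h. Read-out was OD490−OD690, and inhibition was calculated relative to the DMSO and blank wells.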

[5] = target: BCL-XL (Homo sapiens (Human), UniProt Q07817); experiment: BCL-XL enzyme molecular level activity test (HTRF, binding to BIM peptide); details: binding of BCL-XL to BIM peptide, read-out: BCL-XL inhibitory activity (IC50)
Sequence of BCL-XL (Q07817 whole entry): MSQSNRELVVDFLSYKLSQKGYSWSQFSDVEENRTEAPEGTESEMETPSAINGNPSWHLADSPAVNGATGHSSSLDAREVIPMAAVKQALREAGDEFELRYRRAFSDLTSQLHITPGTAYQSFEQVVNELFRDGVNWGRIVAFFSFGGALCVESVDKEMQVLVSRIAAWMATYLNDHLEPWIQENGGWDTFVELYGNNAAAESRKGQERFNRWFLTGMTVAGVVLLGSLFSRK
Outline: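 HTRF binding assay: His-tagged recombinant BCL-XL with biotin-BIM peptide and compound (2% DMSO), 1 h. Anti-His and streptavidin-XL665 detection reagents added, 4 h at room temperature. Excitation 320 nm; 665/615 nm ratio reflects binding, with no-protein background and no-compound full-binding controls.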

[6] = target: human CYP3A4 enzyme (Homo sapiens (Human), UniProt P08684); experiment: CYP3A4 enzyme inhibitory activity (Vivid CYP3A4 Green screening kit)
Sequence of human CYP3A4 enzyme (P08684 whole entry): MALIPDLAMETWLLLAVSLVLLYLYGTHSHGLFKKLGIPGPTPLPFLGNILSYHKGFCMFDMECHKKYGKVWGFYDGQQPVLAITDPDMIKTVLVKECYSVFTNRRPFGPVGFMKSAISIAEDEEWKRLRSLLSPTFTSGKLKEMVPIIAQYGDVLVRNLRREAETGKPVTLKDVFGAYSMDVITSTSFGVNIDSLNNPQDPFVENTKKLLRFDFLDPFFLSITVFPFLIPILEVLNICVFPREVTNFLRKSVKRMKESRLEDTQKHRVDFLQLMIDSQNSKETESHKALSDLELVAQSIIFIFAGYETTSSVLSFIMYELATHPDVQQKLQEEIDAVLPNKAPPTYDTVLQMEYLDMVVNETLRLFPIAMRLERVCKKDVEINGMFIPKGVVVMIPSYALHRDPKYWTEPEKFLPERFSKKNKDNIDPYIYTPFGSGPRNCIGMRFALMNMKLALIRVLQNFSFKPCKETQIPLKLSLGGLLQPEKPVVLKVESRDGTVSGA
Procedure: The inhibitory activity of compounds on human CYP3A4 enzyme was detected using a VIVID™ CYP3A4 GREEN SCRNING KIT reagent kit. The Vivid™ CYP450 screening kit includes a Vivid™ substrate, Vivid™ fluorescence standard, reaction buffer, Vivid™ regeneration system, NADP+ and CYP450 BACULOSOMES™ Plus reagent. Operations were performed following the instructions, and a blank control group was set up without adding any compounds.
The IC50 value of the compounds inhibiting human CYP3A4 enzyme was calculated using Graphpad Prism 7.00 software through the formula Y=100/(1+10^((Log IC50−X)*HillSlope)).

[7] = read-out: CYP3A4 (IC50), Vivid CYP3A4 Green screening kit

Compound | IC50 [1] [nM] | IC50 [2] [nM] | IC50 [3] [nM] | IC50 [4] [nM] | IC50 ([5]; values in nM) [nM] | IC50 [6] [nM] | IC50 ([5]; values given in μM) [nM] | IC50 [6, 7] [nM]
CC(C)c1ccccc1[C@@H]1CCCN1C1CC2(CCN(c3ccc(C(=O)NS(=O)(=O)c4cc([N+](=O)[O-])c(NCC5(F)CCN(C6COC6)CC5)c5[nH]cnc45)c(Oc4cnc5[nH]ccc5c4)c3)CC2)C1 [compound 002] | < 10 | < 10 | < 10 | 0.5 to 1 | > 500 | > 20000 | – | –
COc1ccc(CN2CCN(C3CC4(CCN(c5cc(Oc6cnc7[nH]ccc7c6)c(C(=O)NS(=O)(=O)c6ccc(NCC7CCOCC7)c([N+](=O)[O-])c6)cn5)CC4)C3)C(c3ccccc3C(C)C)C2)cc1 (centres unmarked) [compound 063, 4-((1H-pyrrolo[2,3-b]pyrid-5-yl)oxy)-6-(2-(2-(2-isopropylphenyl)-4-(4-methoxybenzyl)piperazin-1-yl)-7-azaspiro[3.5]non-7-yl)-N-((3-nitro-4-(((tetrahydro-2H-pyran-4-yl)methyl)amino)phenyl)sulfonyl) nicotinamide] | < 10 | < 10 | < 10 | < 0.5 | – | – | > 1000 | > 20000
CC(C)c1ccccc1[C@@H]1CN(Cc2cccc(F)c2F)CCN1C1CC2(CCN(c3cc(Oc4cnc5[nH]ccc5c4)c(C(=O)NS(=O)(=O)c4ccc(NCC5(F)CCOCC5)c([N+](=O)[O-])c4)cc3F)CC2)C1 [compound 189, (R)-2-((1H-pyrrolo[2,3-b]pyrid-5-yl)oxy)-4-(2-(4-(2,3-difluorobenzyl)-2-(2-isopropylphenyl)piperazin-1-yl)-7-azaspiro[3.5]non-7-yl)-5-fluoro-N-((4-(((4-fluorotetrahydro-2H-pyran-4-yl)methyl)amino)-3-nitrophenyl)sulfonyl)benzamide] | < 10 | < 10 | < 10 | < 0.5 | – | – | 1900 | > 20000
COc1ccc(CN2CCN(C3CC4(CCN(c5cc(Oc6cnc7[nH]ccc7c6)c(C(=O)NS(=O)(=O)c6ccc(NCC7CCOCC7)c([N+](=O)[O-])c6)cn5)CC4)C3)[C@H](c3ccccc3C(C)C)C2)cc1 [compound 257, (R)-4-((1H-pyrrolo[2,3-b]pyrid-5-yl)oxy)-6-(2-(2-(2-isopropylphenyl)-4-(4-methoxybenzyl)piperazin-1-yl)-7-azaspiro[3.5]non-7-yl)-N-((3-nitro-4-(((tetrahydro-2H-pyran-4-yl)methyl)amino)phenyl)sulfonyl) nicotinamide] | < 10 | < 10 | < 10 | < 0.5 | – | – | – | > 20000
COc1ccc(CN2CCN(C3CC4(CCN(c5cc(Oc6cnc7[nH]ccc7c6)c(C(=O)NS(=O)(=O)c6ccc(NCC7(F)CCOCC7)c([N+](=O)[O-])c6)cn5)CC4)C3)[C@H](c3ccccc3C(C)C)C2)cc1 [compound 258, (R)-4-((1H-pyrrolo[2,3-b]pyrid-5-yl)oxy)-N-((4-(((4-fluorotetrahydro-2H-pyran-4-yl)methyl)amino)-3-nitrophenyl)sulfonyl)-6-(2-(2-(2-isopropylphenyl)-4-(4-methoxybenzyl)piperazin-1-yl)-7-azaspiro[3.5]non-7-yl) nicotinamide] | < 10 | < 10 | < 10 | < 0.5 | – | – | – | > 20000
COc1ccc(CN2CCN(C3CC4(CCN(c5ccc(C(=O)NS(=O)(=O)c6cc([N+](=O)[O-])c(NC[C@H]7CC[C@](C)(O)CC7)c7[nH]cnc67)c(Oc6cnc7[nH]ccc7c6)c5)CC4)C3)[C@H](c3ccccc3C(C)C)C2)cc1 [compound 259, 2-((1H-pyrrolo[2,3-b]pyrid-5-yl)oxy)-N-((7-((((1r,4r)-4-hydroxy-4-methylcyclohexyl)methyl)amino)-6-nitro-1H-benzo[d]imidazol-4-yl)sulfonyl)-4-(2-((R)-2-(2-isopropylphenyl)-4-(4-methoxybenzyl)piperazin-1-yl)-7-azaspiro[3.5]non-7-yl)benzamide] | < 10 | < 10 | < 10 | < 0.5 | – | – | – | > 20000
COc1ccc(CN2CCN(C3CC4(CCN(c5cc(Oc6cnc7[nH]ccc7c6)c(C(=O)NS(=O)(=O)c6cc([N+](=O)[O-])c(NC[C@H]7CC[C@](C)(O)CC7)c7[nH]cnc67)cc5F)CC4)C3)[C@H](c3ccccc3C(C)C)C2)cc1 [compound 262, 2-((1H-pyrrolo[2,3-b]pyrid-5-yl)oxy)-5-fluoro-N-((7-((((1r,4r)-4-hydroxy-4-methylcyclohexyl)methyl)amino)-6-nitro-1H-benzo[d]imidazol-4-yl)sulfonyl)-4-(2-((R)-2-(2-isopropylphenyl)-4-(4-methoxybenzyl)piperazin-1-yl)-7-azaspiro[3.5]non-7-yl)benzamide] | < 10 | < 10 | < 10 | 0.5 to 1 | – | – | > 1000 | > 20000
COc1ccc(CN2CCN(C3CC4(CCN(c5cc(Oc6cnc7[nH]ccc7c6)c(C(=O)NS(=O)(=O)c6cc([N+](=O)[O-])c(NCC7CCOCC7)c7[nH]cnc67)cc5F)CC4)C3)[C@H](c3ccccc3C(C)C)C2)cc1 [compound 263, (R)-2-((1H-pyrrolo[2,3-b]pyrid-5-yl)oxy)-5-fluoro-4-(2-(2-(2-isopropylphenyl)-4-(4-methoxybenzyl)piperazin-1-yl)-7-azaspiro[3.5]non-7-yl)-N-((6-nitro-7-(((tetrahydro-2H-pyran-4-yl)methyl)amino)-1H-benzo[d]imidazol-4-yl)sulfonyl)benzamide] | < 10 | < 10 | < 10 | 0.5 to 1 | – | – | 1300 | > 20000
COc1ccc(CN2CCN(C3CC4(CCN(c5cc(Oc6cnc7[nH]ccc7c6)c(C(=O)NS(=O)(=O)c6cc([N+](=O)[O-])c(NCC7(F)CCOCC7)c7[nH]cnc67)cc5F)CC4)C3)[C@H](c3ccccc3C(C)C)C2)cc1 [compound 264, (R)-2-((1H-pyrrolo[2,3-b]pyrid-5-yl)oxy)-5-fluoro-N-((7-(((4-fluorotetrahydro-2H-pyran-4-yl)methyl)amino)-6-nitro-1H-benzo[d]imidazol-4-yl)sulfonyl)-4-(2-(2-(2-isopropylphenyl)-4-(4-methoxybenzyl)piperazin-1-yl)-7-azaspiro[3.5]non-7-yl)benzamide] | < 10 | < 10 | < 10 | 0.5 to 1 | – | – | – | > 20000
COc1ccc(CN2CCN(C3CC4(CCN(c5cc(Oc6cnc7[nH]ccc7c6)c(C(=O)NS(=O)(=O)c6cc([N+](=O)[O-])c(NCC7(F)CCOCC7)c7[nH]cnc67)cn5)CC4)C3)[C@H](c3ccccc3C(C)C)C2)cc1 [compound 268, (R)-4-((1H-pyrrolo[2,3-b]pyrid-5-yl)oxy)-N-((7-(((4-fluorotetrahydro-2H-pyran-4-yl)methyl)amino)-6-nitro-1H-benzo[d]imidazol-4-yl)sulfonyl)-6-(2-(2-(2-isopropylphenyl)-4-(4-methoxybenzyl)piperazin-1-yl)-7-azaspiro[3.5]non-7-yl) nicotinamide] | < 10 | < 10 | < 10 | < 0.5 | > 500 | – | – | > 20000
